Results taken from patent publication US8293773B2, “1, 2, 3-triazole derivatives as new cannabinoid-1 receptor antagonists” (National Tsing Hua University, priority 2008, dated 2012).

Key:
human CB1 receptor = target: T1, human CB1 receptor (Homo sapiens, UniProt P21554); assay: competitive radioligand binding assay, displacement of [3H]CP55,940, CB1; conditions: for IC50: displacement of specific [3H]-CP55940 binding in HEK 293 cells stably transfected with human CB1 receptor
T1 construct: expressed in transfected cells; membrane-enriched fractions
Description: (§1) In addition, the affinity of test compounds of this invention toward CB1 and CB2 receptors was determined by competitive radioligand binding assays in vitro. This method differentiates the binding strength between compounds by their abilities in displacing a receptor-specific radioactive ligand. […] The readings of the radioactivity retained allow further analysis of receptor binding, and assist in predictions of the pharmacological activities of the test compounds.
(§2) In the assays, CB1 receptors are from human CB1 stably expressed cell lines, and CB2 receptors are from human CB2 stably expressed cell lines. For purification of membrane-enriched fractions, cells were scraped off from the culture dishes in ice-cold buffer A (50 mM Tris, 5 mM MgCl2, 2.5 mM EDTA, pH 7.4, 10% sucrose) with 1 mM PMSF. After sonication, the membrane-enriched fractions were centrifuged for 15 minutes at 2,000×g at 4° C. The supernatant was centrifuged again for 30 minutes at 43,000×g at 4° C. The final pellet was re-suspended in buffer A and stored at −80° C. The protein concentration of the purified membrane was determined by the Bradford method as described by the manual provided by Bio-Rad Laboratories, Inc., Hercules, Calif.
(§3) During the receptor binding experiments, 0.2˜8 μg of membrane fractions were incubated with 0.75 nM [^3H]CP55,940 and a test compound in the incubation buffer of 50 mM Tris-HCl, 5 mM MgCl2, 1 mM EDTA, 0.3% BSA, pH 7.4. The non-specific binding was determined by using 1 μM of CP55,940. The mixture was incubated for 1.5 hours at 30° C. in Multiscreen microplates (Millipore, Billerica, Mass.). At the completion of the incubation, the reaction was terminated by Manifold filtration and washed with ice-cold wash buffer (50 mM Tris, pH 7.4, 0.25% BSA) four times. The radioactivity bound to the filters was measured by Topcount (Perkin Elmer Inc.).

human CB2 receptor = target: T2, human CB2 receptor (Homo sapiens, UniProt P34972); assay: competitive radioligand binding assay, displacement of [3H]CP55,940, CB2
T2 construct: expressed in transfected cells; membrane-enriched fractions
Description: as §1, §2, §3

[1] = Table 2, percent inhibition at 10 μM

T2 sequence (P34972 whole entry): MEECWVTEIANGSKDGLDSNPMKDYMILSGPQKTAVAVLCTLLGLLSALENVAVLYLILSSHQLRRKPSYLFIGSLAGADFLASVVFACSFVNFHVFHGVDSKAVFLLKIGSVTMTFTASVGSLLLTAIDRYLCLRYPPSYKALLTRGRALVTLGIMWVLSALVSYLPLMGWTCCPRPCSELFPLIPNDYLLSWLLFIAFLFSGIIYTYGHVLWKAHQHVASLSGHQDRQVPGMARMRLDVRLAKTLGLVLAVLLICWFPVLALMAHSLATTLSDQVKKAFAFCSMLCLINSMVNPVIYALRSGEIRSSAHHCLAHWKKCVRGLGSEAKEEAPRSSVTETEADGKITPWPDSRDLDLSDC
T1 sequence (P21554 whole entry): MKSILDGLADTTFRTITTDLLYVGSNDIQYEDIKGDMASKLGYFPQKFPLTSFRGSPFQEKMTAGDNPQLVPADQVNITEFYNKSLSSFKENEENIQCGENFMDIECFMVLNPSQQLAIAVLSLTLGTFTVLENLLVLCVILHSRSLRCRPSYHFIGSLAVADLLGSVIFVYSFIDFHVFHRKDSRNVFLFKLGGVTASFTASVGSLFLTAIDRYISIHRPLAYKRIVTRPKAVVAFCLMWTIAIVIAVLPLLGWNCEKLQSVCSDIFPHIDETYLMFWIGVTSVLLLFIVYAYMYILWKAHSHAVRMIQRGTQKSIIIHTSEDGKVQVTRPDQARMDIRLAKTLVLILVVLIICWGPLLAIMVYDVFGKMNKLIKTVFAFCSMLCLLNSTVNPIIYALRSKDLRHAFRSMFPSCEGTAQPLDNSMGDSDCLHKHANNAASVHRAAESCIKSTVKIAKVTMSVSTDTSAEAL

Structure (SMILES) | inhibition at 10 µM (human CB1 receptor; [1]) | IC50 (human CB1 receptor) | IC50 (human CB2 receptor; cells printed in μM) | IC50 (human CB2 receptor; human CB2 stably expressed cell line membranes) | CB1 Inhibition (%) (10 μM) (human CB1 receptor; Table 2, percent inhibition at 10 μM, 10 µM)
CCCCOC(=O)Cn1nc(-c2ccc(Cl)cc2Cl)c(-c2ccc(Cl)cc2Cl)n1 [Compound 111] | 90.3% | 1170 ± 263 nM | > 10 µM |  | 
O=C(Cn1nc(-c2ccc(Cl)cc2Cl)c(-c2ccc(Cl)cc2Cl)n1)N1CCCCC1 [Compound 120] | 93.7% |  |  | 5.9 ± 0.764 µM | 
O=C(Cn1nc(-c2ccc(Cl)cc2)c(-c2ccc(Cl)cc2Cl)n1)NN1CCCCC1 [Compound 142] | 76.1% | 1850 ± 1380 nM |  |  | 
C[C@H](NC(=O)Cn1nc(-c2ccc(Cl)cc2)c(-c2ccc(Cl)cc2Cl)n1)C(O)(c1ccccc1)c1ccccc1 [Compound 143] | 80% | 789 ± 202 nM |  |  | 
Cc1ccc(CNC(=O)Cn2nc(-c3ccc(Cl)cc3Cl)c(-c3ccc(Cl)cc3Cl)n2)cc1 [Compound 145] | 95% | 252 ± 75.1 nM |  |  | 
O=C(Cn1nc(-c2ccc(Cl)cc2Cl)c(-c2ccc(Cl)cc2Cl)n1)Nc1ccccc1 [Compound 147] | 99.5% | 251 ± 88.1 nM | > 10 µM |  | 
Cc1ccccc1CNC(=O)Cn1nc(-c2ccc(Cl)cc2)c(-c2ccc(Cl)cc2Cl)n1 [Compound 148] | 94.5% | 592 ± 302 nM |  |  | 
COc1ccc(CNC(=O)Cn2nc(-c3ccc(Cl)cc3)c(-c3ccc(Cl)cc3Cl)n2)cc1 [Compound 149] | 78.2% | 684 ± 428 nM |  |  | 
O=C(Cn1nc(-c2ccc(Cl)cc2)c(-c2ccc(Cl)cc2Cl)n1)NCc1ccc(Cl)cc1 [Compound 150] | 91.4% | 704 ± 283 nM |  |  | 
O=C(Cn1nc(-c2ccc(Cl)cc2)c(-c2ccc(Cl)cc2Cl)n1)NCc1cccc2c1OCO2 [Compound 151] | 61.8% | 5970 ± 2600 nM |  |  | 
O=C(Cn1nc(-c2ccc(Cl)cc2)c(-c2ccc(Cl)cc2Cl)n1)NCc1ccc(Cl)cc1Cl [Compound 152] | 90.5% | 711 ± 175 nM |  |  | 
O=C(Cn1nc(-c2ccc(Cl)cc2)c(-c2ccc(Cl)cc2Cl)n1)NCc1ccc(Cl)c(Cl)c1 [Compound 153] | 87% | 1060 ± 656 nM |  |  | 
CC(NC(=O)Cn1nc(-c2ccc(Cl)cc2)c(-c2ccc(Cl)cc2Cl)n1)c1ccccc1 (centres unmarked) [Compound 154] | 95.2% | 772 ± 446 nM |  |  | 
Cc1cccc(CNC(=O)Cn2nc(-c3ccc(Cl)cc3)c(-c3ccc(Cl)cc3Cl)n2)c1 [Compound 155] | 85% | 473 ± 300 nM |  |  | 
COc1cccc(CNC(=O)Cn2nc(-c3ccc(Cl)cc3)c(-c3ccc(Cl)cc3Cl)n2)c1 [Compound 156] | 69.5% |  |  |  | 
O=C(Cn1nc(-c2ccc(Cl)cc2)c(-c2ccc(Cl)cc2Cl)n1)NCc1ccc(F)cc1F [Compound 157] | 95.2% | 217 ± 86.6 nM |  |  | 
O=C(Cn1nc(-c2ccc(Cl)cc2)c(-c2ccc(Cl)cc2Cl)n1)NCc1ccccc1C(F)(F)F [Compound 158] | 92.5% | 302 ± 132 nM |  |  | 
O=C(Cn1nc(-c2ccc(Cl)cc2)c(-c2ccc(Cl)cc2Cl)n1)NCc1ccccc1Cl [Compound 159] | 87.3% | 365 ± 160 nM |  |  | 
O=C(Cn1nc(-c2ccc(Cl)cc2)c(-c2ccc(Cl)cc2Cl)n1)NCc1ccccc1F [Compound 160] | 88.2% | 262 ± 184 nM | > 10 µM |  | 
O=C(Cn1nc(-c2ccc(Cl)cc2)c(-c2ccc(Cl)cc2Cl)n1)NCc1cccc(F)c1 [Compound 161] | 87.7% | 529 ± 144 nM |  |  | 
O=C(Cn1nc(-c2ccc(Cl)cc2)c(-c2ccc(Cl)cc2Cl)n1)NCc1ccc(F)cc1 [Compound 162] | 90.5% | 449 ± 67.9 nM | > 10 µM |  | 
O=C(Cn1nc(-c2ccc(Cl)cc2)c(-c2ccc(Cl)cc2Cl)n1)NC1CCc2ccccc21 (centres unmarked) [Compound 163] | 76.6% | 2070 ± 186 nM |  |  | 
COc1ccc(CNC(=O)Cn2nc(-c3ccc(Cl)cc3)c(-c3ccc(Cl)cc3Cl)n2)cc1OC [Compound 164] | 82.1% | 2830 ± 378 nM |  |  | 
O=C(Cn1nc(-c2ccc(Cl)cc2)c(-c2ccc(Cl)cc2Cl)n1)NCc1cc(F)ccc1F [Compound 165] | 89.8% | 152 ± 71 nM | > 10 µM |  | 
O=C(Cn1nc(-c2ccc(Cl)cc2)c(-c2ccc(Cl)cc2Cl)n1)NCc1ccc(F)c(F)c1 [Compound 166] | 88.3% |  |  |  | 
CC1CCC(NC(=O)Cn2nc(-c3ccc(Cl)cc3)c(-c3ccc(Cl)cc3Cl)n2)CC1 (centres unmarked) [Compound 167] | 92.1% |  |  |  | 
O=C(Cn1nc(-c2ccc(Cl)cc2)c(-c2ccc(Cl)cc2Cl)n1)NCc1ccccc1 [Compound 168] | 93.9% | 204 ± 78.1 nM | > 10 µM |  | 

The remaining lines, values ahead:

inhibition at 10 µM (human CB1 receptor; [1]) | IC50 (human CB1 receptor) | IC50 (human CB2 receptor; cells printed in μM) | IC50 (human CB2 receptor; human CB2 stably expressed cell line membranes) | CB1 Inhibition (%) (10 μM) (human CB1 receptor; Table 2, percent inhibition at 10 μM, 10 µM) | Structure (SMILES)
99.3% | 66.9 ± 8.9 nM | > 10 µM |  |  | O=C(Cn1nc(-c2ccc(Cl)cc2Cl)c(-c2ccc(Cl)cc2Cl)n1)NCc1ccccc1 [Compound 122]
 | 144 ± 110 nM | > 10 µM |  | 91.40% | O=C(Cn1nc(-c2ccc(Cl)cc2Cl)c(-c2ccc(Cl)cc2Cl)n1)NC1CCCCC1 [Compound 125]
89.5% | 140 ± 63.1 nM |  |  |  | CC(C)[C@H](NC(=O)Cn1nc(-c2ccc(Cl)cc2)c(-c2ccc(Cl)cc2Cl)n1)C(O)(c1ccccc1)c1ccccc1 [Compound 144]
94.8% | 81.9 ± 44.2 nM | > 10 µM |  |  | COc1ccc(CNC(=O)Cn2nc(-c3ccc(Cl)cc3Cl)c(-c3ccc(Cl)cc3Cl)n2)cc1 [Compound 146]
 | 25.7 ± 2.9 nM | > 10 µM |  |  | O=C(Cn1nc(-c2ccc(Cl)cc2Cl)c(-c2ccc(Cl)cc2Cl)n1)NCc1cccc(F)c1 [Compound 170]
 | 11.6 ± 3.4 nM | > 10 µM |  |  | O=C(Cn1nc(-c2ccc(Cl)cc2Cl)c(-c2ccc(Cl)cc2Cl)n1)NCc1ccc(F)cc1 [Compound 171]
 | 19.3 ± 3.5 nM |  |  |  | O=C(Cn1nc(-c2ccc(Cl)cc2Cl)c(-c2ccc(Cl)cc2Cl)n1)NCc1ccccc1F [Compound 173]
 | 22 ± 6.1 nM | > 10 µM |  |  | O=C(Cn1nc(-c2ccc(Cl)cc2Cl)c(-c2ccc(Cl)cc2Cl)n1)NCc1cc(F)ccc1F [Compound 184]
 | 51.7 ± 15.5 nM | > 10 µM |  |  | Cc1cccc(CNC(=O)Cn2nc(-c3ccc(Cl)cc3Cl)c(-c3ccc(Cl)cc3Cl)n2)c1 [Compound 188]
 | 45.9 ± 18.4 nM | > 10 µM |  |  | O=C(Cn1nc(-c2ccc(Cl)cc2Cl)c(-c2ccc(Cl)cc2Cl)n1)NCc1ccc(F)cc1F [Compound 190]
 | 48.9 ± 12 nM | > 10 µM |  |  | O=C(Cn1nc(-c2ccc(Cl)cc2Cl)c(-c2ccc(Cl)cc2Cl)n1)NCc1ccccc1Cl [Compound 191]
 | 64.8 ± 10.5 nM | > 10 µM |  |  | O=C(Cn1nc(-c2ccc(Cl)cc2Cl)c(-c2ccc(Cl)cc2Cl)n1)NCc1ccc(Cl)cc1 [Compound 192]
 | 125 ± 23.1 nM | > 10 µM |  |  | COc1ccccc1CNC(=O)Cn1nc(-c2ccc(Cl)cc2Cl)c(-c2ccc(Cl)cc2Cl)n1 [Compound 196]
 | 82.9 ± 7 nM | > 10 µM |  |  | O=C(Cn1nc(-c2ccc(Cl)cc2Cl)c(-c2ccc(Cl)cc2Cl)n1)NCc1ccc(F)c(F)c1 [Compound 198]
 | 48 ± 11.1 nM | > 10 µM |  |  | CC(NC(=O)Cn1nc(-c2ccc(Cl)cc2Cl)c(-c2ccc(Cl)cc2Cl)n1)c1ccccc1 (centres unmarked) [Compound 202]
